# Results: ChEMBL document CHEMBL5096211, “Fluorophenylalkyl-substituted cyanoguanidine derivatives as bacteria-selective MATE transporter inhibitors for the treatment of antibiotic-resistant infections” (Bioorg Med Chem, 2022)
# Tests used:
# [1] = molecular target: T1, Multidrug resistance protein HmrM (Haemophilus influenzae) (UniProt P45272); experiment: Inhibition of Haemophilus influenza HmrM transporter expressed in Escherichia coli KAM32 assessed as inhibition of bacterial resistance to norfloxacin by measuring norfloxacin MIC at 100 uM incubated for 18 hrs by microbroth dilution method
# T1 sequence (whole entry): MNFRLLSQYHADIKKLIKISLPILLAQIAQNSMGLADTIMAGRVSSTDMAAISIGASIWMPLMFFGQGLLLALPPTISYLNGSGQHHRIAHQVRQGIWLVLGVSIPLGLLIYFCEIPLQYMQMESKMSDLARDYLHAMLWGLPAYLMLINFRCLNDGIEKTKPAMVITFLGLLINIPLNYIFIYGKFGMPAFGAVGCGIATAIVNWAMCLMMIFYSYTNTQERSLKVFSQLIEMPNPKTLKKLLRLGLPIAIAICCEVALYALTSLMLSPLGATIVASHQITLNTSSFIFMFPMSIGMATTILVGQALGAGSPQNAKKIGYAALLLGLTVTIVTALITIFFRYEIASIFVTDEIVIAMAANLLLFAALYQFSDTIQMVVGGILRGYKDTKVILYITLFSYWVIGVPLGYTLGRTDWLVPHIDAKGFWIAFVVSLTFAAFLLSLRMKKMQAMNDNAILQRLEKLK
# [2] = molecular target: T1, Multidrug resistance protein HmrM (Haemophilus influenzae); experiment: Inhibition of Haemophilus influenza HmrM transporter expressed in Escherichia coli KAM32 assessed as inhibition of bacterial resistance to norfloxacin by measuring reduction in bacterial growth at 100 uM incubated for 18 hrs by microbroth dilution method
# [3] = tested on: Bacteroides thetaiotaomicron; experiment: Inhibition of Bacteroides thetaiotaomicron BexA expressed in Escherichia coli KAM32 assessed as inhibition of bacterial growth incubated for 18 hrs by microbroth dilution method
# [4] = molecular target: T2, Multidrug resistance protein MdtK (Escherichia coli (strain K12)) (UniProt P37340); experiment: Inhibition of Escherichia coli MdtK expressed in Escherichia coli KAM32 assessed as inhibition of bacterial growth incubated for 18 hrs by microbroth dilution method
# T2 sequence (whole entry): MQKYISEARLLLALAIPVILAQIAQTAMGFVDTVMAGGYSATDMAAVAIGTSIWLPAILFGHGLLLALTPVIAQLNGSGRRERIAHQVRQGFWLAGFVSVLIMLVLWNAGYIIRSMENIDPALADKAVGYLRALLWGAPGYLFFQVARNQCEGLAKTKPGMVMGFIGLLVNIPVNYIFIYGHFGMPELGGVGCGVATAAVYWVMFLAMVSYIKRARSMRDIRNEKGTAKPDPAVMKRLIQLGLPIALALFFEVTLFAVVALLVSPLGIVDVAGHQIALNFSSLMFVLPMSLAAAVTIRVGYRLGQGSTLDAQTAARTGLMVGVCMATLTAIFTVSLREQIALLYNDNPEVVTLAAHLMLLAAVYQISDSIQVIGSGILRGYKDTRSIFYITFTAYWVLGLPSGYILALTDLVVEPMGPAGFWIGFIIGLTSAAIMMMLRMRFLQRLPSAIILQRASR
# [5] = molecular target: T3, Multidrug and toxin extrusion protein 1 (Homo sapiens, UniProt Q96FL8); experiment: Inhibition of human MATE1; type: toxicity
# T3 sequence (Q96FL8 whole entry): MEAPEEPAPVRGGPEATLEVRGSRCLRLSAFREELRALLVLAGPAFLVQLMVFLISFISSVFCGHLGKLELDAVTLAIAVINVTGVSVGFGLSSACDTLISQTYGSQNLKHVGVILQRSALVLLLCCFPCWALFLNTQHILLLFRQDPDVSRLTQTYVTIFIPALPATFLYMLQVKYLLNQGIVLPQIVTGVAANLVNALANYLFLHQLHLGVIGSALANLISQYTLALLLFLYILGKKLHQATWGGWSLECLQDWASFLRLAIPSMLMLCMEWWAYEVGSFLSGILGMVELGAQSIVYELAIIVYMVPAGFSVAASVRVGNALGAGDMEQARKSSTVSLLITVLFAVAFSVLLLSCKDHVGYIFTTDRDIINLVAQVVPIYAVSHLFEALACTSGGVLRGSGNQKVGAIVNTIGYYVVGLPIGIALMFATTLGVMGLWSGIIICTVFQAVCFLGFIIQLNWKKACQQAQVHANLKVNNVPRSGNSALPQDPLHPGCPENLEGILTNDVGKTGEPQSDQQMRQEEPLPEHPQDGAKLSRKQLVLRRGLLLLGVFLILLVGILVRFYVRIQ
# HEK293 = experiment: Cytotoxicity against human HEK293 cells assessed as reduction in cell viability upto 300 uM incubated for 24 hrs by MTT assay; type: toxicity, cell-based; conditions: hek293, 24 h
SMILES,MIC [1],Efficacy [2],Efficacy [3],Efficacy [4],IC50 [5],Activity (HEK293)
CN/C(=N\C#N)NCCSCc1ccccc1F,0.04 µg/mL,50%,–,–,–,–
CN/C(=N\C#N)NCCCc1cccc(F)c1,0.04 µg/mL,50%,–,–,–,–
CN/C(=N\C#N)NCCSCCc1cccc(F)c1,0.028 µg/mL,75%,0%,57%,–,–
CN/C(=N\C#N)NCCCCc1cccc(F)c1,0.024 µg/mL,83%,0%,57%,–,–
CN/C(=N\C#N)NCCCCCc1cccc(F)c1,0.02 µg/mL,92%,0%,86%,> 100 µM,Non-Toxic
CN/C(=N\C#N)NCCSCc1ccc(F)c(F)c1,0.048 µg/mL,33%,–,–,–,–
Cc1[nH]cnc1CSCCNc1ncccn1,–,–,–,–,2 µM,–
CN/C(=N\C#N)NCCc1cccc(F)c1,0.056 µg/mL,17%,–,–,–,–
CN/C(=N\C#N)NCCOCc1cccc(F)c1,0.056 µg/mL,17%,–,–,–,–
CN/C(=N\C#N)NCCSCc1ccccc1,0.056 µg/mL,17%,–,–,> 100 µM,–
CS/C(=N\C#N)NCCSCc1cccc(F)c1,0.032 µg/mL,67%,–,–,–,–
CN/C(=N\C#N)NCCSCc1cccc(OC)c1,0.04 µg/mL,50%,–,–,–,–
CN/C(=N\C#N)NCCSCc1cccc(C(F)(F)F)c1,0.048 µg/mL,33%,–,–,–,–
CN/C(=N\CCSCc1nc[nH]c1C)NC#N,0.056 µg/mL,17%,–,–,–,–
Fc1cccc(CSCCNc2ncccn2)c1,0.056 µg/mL,17%,–,–,–,–
CN/C(=N\C#N)NCCSCc1ccc(F)cc1,0.048 µg/mL,33%,–,–,–,–
NCCSCc1cccc(F)c1,0.04 µg/mL,50%,–,–,–,–
CN/C(=N\C#N)NCCSCc1cccc([N+](=O)[O-])c1,0.032 µg/mL,67%,–,–,–,–
CN/C(=N\C#N)NCCSCc1cc(F)cc(F)c1,0.04 µg/mL,50%,–,–,–,–
CN/C(=N\C#N)NCCSCc1cccc(F)c1,0.032 µg/mL,67%,–,–,> 100 µM,–
N=C(N)NCCSCc1cccc(F)c1,0.048 µg/mL,33%,–,–,–,–
